Data published in US12139815B2, “Methods for rapid detection of immunogenic epitopes in biothreat agents and emerging pathogens for peptide vaccines and therapeutics” (priority 2021, dated 2024).

Test system: antibodies from sera of mice immunized with Ft-ΔclpB
Type: binding, mouse

Sequence	enrichment in Experiment samples relative to Control samples (in words)
EGVITVEEGK (listed as Francisella tularensis) [SEQ ID NO: 8]	enriched
DNTTIIDGAGEK [SEQ ID NO: 7]	enriched
